Reference: patent US20120045835A1, “PORTABLE DEVICE BASED ON IMMOBILIZED CELLS FOR THE DETECTION OF ANALYTES” (priority 2009, published 2012)

Tests used:
[1] = system: yeast cells specific to estrogens; experiment: Calibration curves for 17-β estradiol with immobilized yeast biosensor; format: cell-based; details: yeast immobilized in matrix (2% atelocollagen, 0.5% polydimethylsiloxane); similar to liquid cultures
Text: For example, the device employs S. cerevisiae cells specific for compounds with estrogenic/androgenic activity: for this aim an integrative vector with a regulatory element containing two or more tandem copies of the Androgen or Estrogen Responsive Element (ARE/ERE) upstream of the gene encoding for the bioluminescent reporter protein (e.g., luciferase from P. pyralis) and a vector encoding for human androgen or estrogen receptor were introduced in S. cerevisiae cells (A new highly specific and robust yeast androgen bioassay for the detection of agonists and antagonists Toine F. H. Boyce, Richard J. R. Helsdingen, Astrid R. M. Hamers, Majorie B. M. van Duursen, Michel W. F. Nielen, and Ron L. A. P. Hoogenboom). In this work, GFP is used as fluorescent reporter gene that also finds application in the present invention.
Analogously to Example 3, but with slight modifications to single components of the immobilization matrix (2% atelocollagen and 0.5% polydimethylsiloxane), a biosensor based on yeast cells specific to estrogens was immobilized.
Recombinant cells are grown in SC liquid culture (synthetic complete, selective for plasmid auxotrophies) at 30° C. up to an optical density at 600 nm of 0.6. Then, cells are immobilized as previously described.

[2] = system: recombinant E. coli cells specific for Cu^2+; experiment: Calibration curve for copper with immobilized bioluminescent biosensor and control strain; format: cell-based; details: E. coli immobilized in the matrix; signal corrected with control strain constitutively expressing firefly luciferase
Method: For each calibration curve a limit of detection is calculated (LOD) according to the standard deviation on the blank signal measured with the calibration curve. It is provided by the analyte concentration corresponding to the signal XLOD:
A calibration curve for copper was performed by employing recombinant E. coli cells specific for Cu^2+ and a control strain that constitutively express firefly luciferase. The use of a control strain allows to correct the analytical signal with a detection limit of 0.05 ppm for Cu^2+.
Cells are grown in selective liquid medium at 37° C. (e.g., Luria Bertani Broth with antibiotic for plasmid maintenance) for each strain up to an optical density at 600 nm in the range 0.6-0.8.
Then, a buffered solution at pH 6.5-7.5 is added to each cell suspension containing nutrients and is mixed 1:2-1:4 with the immobilization matrix.
A solution containing 1% atelocollagen in PBS (NaCl 137 mM, KCl 2.7 mM, NaH2PO4 1.4 mM, Na2HPO4 4.3 mM) at pH 7.4 with decorin final concentration 15% w/w atelocollagen.
Polyvinylpyrrolidone (PVP) and modified polysiloxanes (e.g., polydimethylsiloxane, tetraethyl-orthosilicate) are added to a final concentration of 1% and 0.4%, respectively.

Structure (SMILES)	limit of detection [1]	detection limit [2]
C[C@]12CC[C@@H]3c4ccc(O)cc4CC[C@H]3[C@@H]1CC[C@@H]2O [17-β estradiol]	10 pM	
[Cu+2] [Cu^2+]		0.05 ppm
